Experiments:
Experiment in all cases: relative viability (nuclei count vs DMSO), 5 days (fraction); higher = more cells survive
[1] = test system: HOP-62
Procedure, shortened: (§1)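 Lung cancer cell lines, seeded in 1536-well plates, were treated the following day by pin tool with a single drug or with five library-drug doses (not always all listed) in √10 steps on top of a fixed anchor-drug dose. Cells were fixed and nuclei stained in one step after 5 days, and nuclei were counted. Relative viability is the nuclei count for treated wells divided by that for vehicle wells, reported as medians of duplicate plates.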

[2] = test system: SK-LU-1
Procedure, shortened: as §1

[3] = test system: NCI-H460
Procedure, shortened: as §1

[4] = test system: A-427
Procedure, shortened: as §1

[5] = test system: SW 1573
Procedure, shortened: as §1

[6] = test system: NCI-H647
Procedure, shortened: as §1

[7] = test system: LXF-289
Procedure, shortened: as §1

[8] = test system: NCI-H1915
Procedure, shortened: as §1

[9] = test system: LC-2-ad
Procedure, shortened: as §1

[10] = test system: NCI-H2126
Procedure, shortened: as §1

[11] = test system: NCI-H2347
Procedure, shortened: as §1

[12] = test system: NCI-H2342
Procedure, shortened: as §1

[13] = test system: LOU-NH91
Procedure, shortened: as §1

[14] = test system: NCI-H1755
Procedure, shortened: as §1

[15] = test system: NCI-H1975
Procedure, shortened: as §1

[16] = test system: NCI-H2228
Procedure, shortened: as §1

[17] = test system: RERF-LC-KJ
Procedure, shortened: as §1

[18] = test system: NCI-H358
Procedure, shortened: as §1

[19] = test system: HCC-15
Procedure, shortened: as §1

[20] = test system: PC-3 [JPC-3]
Procedure, shortened: as §1

[21] = test system: HCC-78
Procedure, shortened: as §1

[22] = test system: NCI-H1734
Procedure, shortened: as §1

Oc1nc(-c2ccc(C(F)(F)F)cc2)nc2c1CSCC2 [XAV939] + COc1cc2c(Oc3ccc(NC(=O)C4(C(=O)Nc5ccc(F)cc5)CC4)cc3F)ccnc2cc1OCCCN1CCOCC1 [Foretinib] (partner 0.25 µM)
relative viability ([1]; first compound 0.08 µM): 1.23 | relative viability ([1]; first compound 0.253 µM): 1.04 | relative viability ([1]; first compound 0.8 µM): 0.996 | relative viability ([1]; first compound 2.53 µM): 0.943 | relative viability ([2]; first compound 0.08 µM): 0.861 | relative viability ([2]; first compound 0.253 µM): 0.756 | relative viability ([2]; first compound 0.8 µM): 0.883 | relative viability ([2]; first compound 2.53 µM): 0.78 | relative viability ([3]; first compound 0.08 µM): 1.01 | relative viability ([3]; first compound 0.253 µM): 0.926 | relative viability ([3]; first compound 0.8 µM): 0.999 | relative viability ([3]; first compound 2.53 µM): 0.922 | relative viability ([4]; first compound 0.08 µM): 1.26 | relative viability ([4]; first compound 0.253 µM): 1.07 | relative viability ([4]; first compound 0.8 µM): 1.04 | relative viability ([4]; first compound 2.53 µM): 0.862 | relative viability ([5]; first compound 0.08 µM): 1.2 | relative viability ([5]; first compound 0.253 µM): 0.816 | relative viability ([5]; first compound 0.8 µM): 0.732 | relative viability ([5]; first compound 2.53 µM): 0.788 | relative viability ([6]; first compound 0.08 µM): 1.21 | relative viability ([6]; first compound 0.253 µM): 0.958 | relative viability ([6]; first compound 0.8 µM): 0.991 | relative viability ([6]; first compound 2.53 µM): 0.609 | relative viability ([7]; first compound 0.08 µM): 0.985 | relative viability ([7]; first compound 0.253 µM): 0.95 | relative viability ([7]; first compound 0.8 µM): 0.967 | relative viability ([7]; first compound 2.53 µM): 0.988 | relative viability ([8]; first compound 0.08 µM): 1.18 | relative viability ([8]; first compound 0.253 µM): 1.11 | relative viability ([8]; first compound 0.8 µM): 1.08 | relative viability ([8]; first compound 2.53 µM): 1.03 | relative viability ([9]; first compound 0.08 µM): 1 | relative viability ([9]; first compound 0.253 µM): 0.854 | relative viability ([9]; first compound 0.8 µM): 0.911 | relative viability ([9]; first compound 2.53 µM): 0.843 | relative viability ([10]; first compound 0.08 µM): 1.1 | relative viability ([10]; first compound 0.253 µM): 0.989 | relative viability ([10]; first compound 0.8 µM): 1.17 | relative viability ([10]; first compound 2.53 µM): 0.725 | relative viability ([11]; first compound 0.08 µM): 0.797 | relative viability ([11]; first compound 0.253 µM): 0.803 | relative viability ([11]; first compound 0.8 µM): 0.786 | relative viability ([11]; first compound 2.53 µM): 0.354 | relative viability ([12]; first compound 0.08 µM): 1.08 | relative viability ([12]; first compound 0.253 µM): 0.936 | relative viability ([12]; first compound 0.8 µM): 0.932 | relative viability ([12]; first compound 2.53 µM): 0.529 | relative viability ([13]; first compound 0.08 µM): 0.932 | relative viability ([13]; first compound 0.253 µM): 0.918 | relative viability ([13]; first compound 0.8 µM): 0.903 | relative viability ([13]; first compound 2.53 µM): 0.891 | relative viability ([14]; first compound 0.08 µM): 0.891 | relative viability ([14]; first compound 0.253 µM): 0.787 | relative viability ([14]; first compound 0.8 µM): 0.815 | relative viability ([14]; first compound 2.53 µM): 0.809 | relative viability ([15]; first compound 0.08 µM): 0.858 | relative viability ([15]; first compound 0.253 µM): 0.696 | relative viability ([15]; first compound 0.8 µM): 0.691 | relative viability ([15]; first compound 2.53 µM): 0.756 | relative viability ([16]; first compound 0.08 µM): 0.98 | relative viability ([16]; first compound 0.253 µM): 0.874 | relative viability ([16]; first compound 0.8 µM): 0.91 | relative viability ([16]; first compound 2.53 µM): 0.847 | relative viability ([17]; first compound 0.08 µM): 0.781 | relative viability ([17]; first compound 0.253 µM): 0.738 | relative viability ([17]; first compound 0.8 µM): 0.792 | relative viability ([17]; first compound 2.53 µM): 0.681 | relative viability ([18]; first compound 0.08 µM): 0.722 | relative viability ([18]; first compound 0.253 µM): 0.596 | relative viability ([18]; first compound 0.8 µM): 0.622 | relative viability ([18]; first compound 2.53 µM): 0.6 | relative viability ([19]; first compound 0.08 µM): 1.2 | relative viability ([19]; first compound 0.253 µM): 0.984 | relative viability ([19]; first compound 0.8 µM): 1.05 | relative viability ([19]; first compound 2.53 µM): 0.988 | relative viability ([20]; first compound 0.08 µM): 1.03 | relative viability ([20]; first compound 0.253 µM): 0.854 | relative viability ([20]; first compound 0.8 µM): 1.02 | relative viability ([20]; first compound 2.53 µM): 0.951 | relative viability ([21]; first compound 0.08 µM): 0.591 | relative viability ([21]; first compound 0.253 µM): 0.552 | relative viability ([21]; first compound 0.8 µM): 0.552 | relative viability ([21]; first compound 2.53 µM): 0.506 | relative viability ([22]; first compound 0.08 µM): 0.953 | relative viability ([22]; first compound 0.253 µM): 0.784 | relative viability ([22]; first compound 0.8 µM): 0.913 | relative viability ([22]; first compound 2.53 µM): 0.829

Source: the supplement of paper PMC10307832
